According to paper PMC4937820, “Identification of selective inhibitors of RET and comparison with current clinical candidates through development and validation of a robust screening cascade” (F1000Research, 2016):
pIC50: −log10 of the molar value.

Key:
[1] = tested on: MZ-CRC-1 (RET (M918T)) versus HEK293 cells; test: Cell POP (proof of principle) proliferation assay, MZ-CRC-1 vs HEK293 control; assay type: cell-based, human; details: IC50 HEK293 control cells divided by IC50 MZ-CRC-1 cells
RET [2] = details: MZ-CRC-1 cells; confirmed in-house (data not shown); read-out: IC 50 in MZ-CRC-1 cells (RET); cited from earlier work
RET [3] = target: RET (Homo sapiens, UniProt P07949, M918T); test: RET cellular POM (proof of mechanism) assay; assay type: cell-based
Chain of RET (Homo sapiens, UniProt P07949, M918T) (P07949 29-1114 M918T): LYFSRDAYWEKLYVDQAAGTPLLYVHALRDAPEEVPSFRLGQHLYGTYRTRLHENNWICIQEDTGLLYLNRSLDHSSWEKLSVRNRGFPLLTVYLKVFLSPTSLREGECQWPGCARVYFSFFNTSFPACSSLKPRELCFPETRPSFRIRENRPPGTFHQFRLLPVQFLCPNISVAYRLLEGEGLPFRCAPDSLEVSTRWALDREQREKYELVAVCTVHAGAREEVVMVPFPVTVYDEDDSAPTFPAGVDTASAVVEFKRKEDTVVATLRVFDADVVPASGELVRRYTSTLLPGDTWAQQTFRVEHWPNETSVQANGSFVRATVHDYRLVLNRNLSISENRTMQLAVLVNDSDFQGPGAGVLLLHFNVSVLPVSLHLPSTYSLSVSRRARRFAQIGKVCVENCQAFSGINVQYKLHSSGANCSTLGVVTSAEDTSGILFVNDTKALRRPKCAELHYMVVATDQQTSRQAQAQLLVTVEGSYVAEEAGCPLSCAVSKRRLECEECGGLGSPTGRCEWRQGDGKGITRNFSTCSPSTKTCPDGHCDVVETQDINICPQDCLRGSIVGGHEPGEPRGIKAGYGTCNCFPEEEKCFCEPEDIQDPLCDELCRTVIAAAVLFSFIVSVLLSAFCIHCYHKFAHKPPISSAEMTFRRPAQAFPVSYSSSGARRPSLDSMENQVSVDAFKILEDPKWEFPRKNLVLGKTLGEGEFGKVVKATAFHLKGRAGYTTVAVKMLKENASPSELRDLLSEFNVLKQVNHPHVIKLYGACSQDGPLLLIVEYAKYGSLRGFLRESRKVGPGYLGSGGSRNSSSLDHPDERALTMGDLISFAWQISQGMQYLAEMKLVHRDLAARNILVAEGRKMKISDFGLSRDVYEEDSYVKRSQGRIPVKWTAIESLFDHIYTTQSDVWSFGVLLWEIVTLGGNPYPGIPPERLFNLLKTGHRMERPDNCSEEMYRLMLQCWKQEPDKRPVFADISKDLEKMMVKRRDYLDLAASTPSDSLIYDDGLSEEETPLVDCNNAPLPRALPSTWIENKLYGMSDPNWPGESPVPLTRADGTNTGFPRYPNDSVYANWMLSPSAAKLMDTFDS

RET [4] = test: Western blot of pRET, total RET and GAPDH in MZ-CRC-1 cells; assay type: cell-based; details: 1µM, 24 hours
Method: Following compound treatment (1µM, 24 hours), MZ-CRC-1 cell lysates (50 μg) were subjected to polyacrylamide gel electrophoresis (PAGE) and semi-dry transfer to nitrocellulose membrane using the Bio-Rad Trans-Blot Turbo system and Trans-Blot Turbo transfer packs. Membranes were blocked overnight at 4°C in phosphate-buffered saline containing 0.1% Tween (PBST; Sigma) and 5% non-fat dried milk powder (marvel). Primary and secondary antibody incubations were performed at room temperature in PBST/0.5% marvel with 3× PBST washes post incubation. pRET (Santa Cruz #SC-20252-R) and total RET (Santa Cruz #sc-167) antibodies were used at 1:500 dilutions; GAPDH (Cell Signaling Technology #2118L) and secondary goat anti rabbit IgG HRP-linked (Cell Signaling Technology #7074) antibodies were used at 1:1000. Proteins were visualized by chemiluminescent detection of peroxidase activity using SuperSignal reagent (Pierce), and images were captured using the Syngene imager and GeneSys software.

RET-positive patients = details: preliminary report of phase II trial; cited from earlier work

CCc1cc2c(cc1N1CCC(N3CCOCC3)CC1)C(C)(C)c1[nH]c3cc(C#N)ccc3c1C2=O [Alectinib]
Toxicity Margin [1]: ^1>35× | pIC50 (RET [2]): […]

COc1cc2nccc(Oc3ccc(NC(=O)NC4CC4)c(Cl)c3)c2cc1C(N)=O [Lenvatinib]
Toxicity Margin [1]: 141×

CCN(CC)CCNC(=O)c1c(C)[nH]c(/C=C2\C(=O)Nc3ccc(F)cc32)c1C [Sunitinib]
Toxicity Margin [1]: 28×

CC(C)c1cc(-c2n[nH]c(=O)n2-c2ccc3c(ccn3C)c2)c(O)cc1O [Ganetespib]
Toxicity Margin [1]: 0.7× | Selectivity vs. KDR (cell) (RET [3]; cellular, KDR IC50 divided by RET IC50): 0.36× | pIC50 (RET [3]; geometric mean of at least four independent measurements, read-out: RET Cell IC 50): 8.41 | Effect on levels of active RET (RET [4]): reduce levels of active RET, through protein degradation

COc1cc2nccc(Oc3ccc(NC(=O)C4(C(=O)Nc5ccc(F)cc5)CC4)cc3)c2cc1OC [Cabozantinib]
Clinical response (RET-positive patients): partial responses in two of three RET-positive patients

CNC(=O)c1cc(Oc2ccc(NC(=O)Nc3ccc(Cl)c(C(F)(F)F)c3)cc2)ccn1 [Sorafenib]
Toxicity Margin [1]: 13×
